Structures can show the parent of a compound that is named as a salt.
Target: T1, human FPTase (Homo sapiens, UniProt P49354+P49356)
T1 construct: made in house
Assay: In vitro inhibition of Ras farnesyl transferase (human FPTase)
Type: biochemical
Conditions: [3H]-FPP incorporation, 100 nM Ras-CVIM, 30 min; read-out: IC50 against human FPTase

For `N#Cc1ccc(Cn2cncc2CCC(=O)Nc2cccc(Cl)c2)cc1` [Example 1, N-(3-chlorophenyl)-3-[1-(4-cyanobenzyl)-5-imidazolyl]propionamide hydrochloride], the IC50 was under 10 µM.

Source: US5968965A, “Inhibitors of farnesyl-protein transferase” (Merck & Co., Inc., priority 1997, dated 1999)
